# Experimental data taken from patent US11786495B2 (priority 2021, dated 2023).
# Counter-ions that a name gives are not always drawn.
# How the values were obtained:
# [1] = model of spinal stenosis; cited from earlier work
# [2] = 70 kg man, estimated, extrapolated from animal models; cited from earlier work
# [3] = TEC vs. Lipinski criteria for CNS drug like properties; conditions: four criteria: MW, LogP, HBD, HBA
# beta amyloid protein = conditions: varying concentrations of sodium citrate; thioflavin T positive aggregates; cited from earlier work
smiles,measurement,setting,value
O=C(O)CC(O)(CC(=O)O)C(=O)O [Citrate],Bone calcium,[1],decrease bone calcium
"CCOC(=O)CC(O)(CC(=O)OCC)C(=O)OCC [TEC, Triethyl citrate]",LD50,[2],~500 cc
same,Lipinski criteria met for a CNS drug,[3],Three out of four
O=C([O-])CC(O)(CC(=O)[O-])C(=O)[O-].[Na+].[Na+].[Na+] [sodium citrate],Dissolution of calcium-produced beta amyloid aggregates,beta amyloid protein,aggregates dissolve in response to citrate concentration
